Measurements: US4201784A, “Substituted 2-[2'-(5"-nitrofuryl-2")vinyl-and 4'-(5"-nitrofuryl-2"-1,3-butadieryl]quinoline-4-carboxylic acid amides and salts thereof” (Institut Organicheskogo Sinteza Akademii Nauk Latviiskoi SSR, priority 1977, dated 1980)
Like-named read-outs stand apart in the source and are kept apart here.

How the values were obtained:
[1] = Biological availability, ascites of mice with Ehrlich ascitic carcinoma; format: in vivo
Method: (§1) The biological availability of giniquine was studied on common white male rats with a mass of 150-200 g and common white male mice with a mass of 25-30 g. The test began seven days after Ehrlich ascitic carcinoma was inoculated to the animals.
(§2) Giniquine was injected intraperitoneally in 100 mg/kg doses, using distilled water as a solvent. The animals were slaughtered at preset time intervals (5,15,30 and 60 minutes) and a biological material (blood and liver for rats and ascites for mice) was taken for analysis. To separate ascitic fluid from the tumor cells, ascites was centrifuged at 2000 r.p.m. for 10 minutes. The precipitate was washed with a mixture of physiological solution and heparin and was again centrifuged under the same conditions, 20% homogenates in distilled water were prepared from ascitic cells.
(§3) Giniquine was extracted from the biological material with chloroform.
(§4) The extraction procedure comprised the following stages: 0.1 ml of ethyl alcohol were added to 1 ml of tested sample and the solution was thoroughly mixed with 0.5 ml of a saturated potassium carbonate solution, then 4 ml of chloroform was added. Closed test tubes were vigorously shaken on a rocker for one hour. After the shaking, the samples were centrifuged at 5000 r.p.m. for ten minutes. The chloroform layer was used for analysis. Daylight was avoided.
(§5) Concentration of the preparation in biological samples was determined by spectrophotometry at 400 nm using molar absorption factor (ε0.10^-3 =36.04).
(§6) The results were expressed in μg/ml of sample. Minimum sensitivity of the method was 1.1 μg/ml.

[2] = test system: sarcoma 37; test: Antitumor activity, life prolongation, sarcoma 37; format: in vivo, mice
Method: (§7) Apart from the tests on Ehrlich ascitic tumor, giniquine was studied on twelve more inoculated tumors. Seven tumors (melanoma B16, sarcoma AK, large intestine carcinoma acatol-1, sarcoma 180, adenocarcinoma 755, Lewis lung carcinoma and sarcoma 37) were inoculated subcutaneously with 50 mg of tumoral cells per mouse. Four tumors (lymphatic leukemies L 5178, L 5178Y, L 1210 and P-388) were inoculated intraperitoneally with 10^6 cells per mouse. One tumor (La, hemocytoblastosis) was inoculated intraperitoneally by injecting 50 mg of cell suspension of spleen and liver of mice suffering La hemocytoblastosis, per mouse. Giniquine was injected intraperitoneally five times for seven days: 1,2,3,4,7 days or 3,4,5,6,7 days after the implantation of tumor. The rate of deceleration of the tumor growth was established 14 days after the ultimate injection of giniquine; life of test animals was recorded for 60 days.

[3] = test system: Kidneys; test: In vivo biosynthesis of DNA, RNA and protein in kidneys; design: species or system mice; settings: 24 hours, intraperitoneal 28 mg/kg
Method: (§8) The influence of giniquine on biosynthetic processes in the in vivo tests was studied on common white mice of a mass of 25-35 g with Ehrlich ascitic tumor.
(§9) The mice were divided into two groups. The animals in the first group were given a single injection of the preparation in differing doses, and the animals in the second group were treated with distilled water. Three series of experiments were conducted. In the first series of tests (16 mice) the preparation was injected in a dose of 100 mg/kg ([…] dose), and the animals were decapitated one hour after the injection; in the second test series (16 mice) the animals were slaughtered 3 hours after the injection with other conditions being the same. In the third test series (35 mice) the influence of giniquine on plastic metabolism in tumor cells and normal tissues was studied 24 hours after the injection of a 0.33% solution of the preparation in a dose of 28 mg/kg (therapeutical dose).
(§10) Labeled precursors of nucleic acids and protein were injected intraperitoneally one hour before the slaughter of the animals (50 μc/100 g). Ascitic fluid, as well as liver and spleen, mucous membrane of small intestine, brain, kidneys and lungs were taken for analysis. 10% suspension was prepared from tumor cells, and 10% homogenates were prepared from tissues in a physiological solution.
(§11) Tumor cells and tissue homogenates for precipitation of nucleic acids were treated with 57% perchloric acid (10:1). […] Radioactivity of DNA and RNA fractions was measured by means of a liquid scintillation counter. The quantity of DNA and RNA was determined by spectrophotometry: the quantity of DNA was determined with diphenylamine, and RNA- with orcin.
(§12) To prepare protein hydrolysate, the suspension of tumoral cells and homogenates of normal tissues were treated with cool 10% trichloracetic acid (1:4), with subsequent centrifuging at 2000 g for ten minutes. […] The radioactivity was measured by means of a liquid scintillation counter. Protein was quantitatively determined by spectrophotometry using a microbiuret reaction.

[4] = test system: Ehrlich ascitic tumor; test: Influence of fluorafur on antitumor activity of giniquine, Ehrlich ascitic tumor; format: in vivo, mice
Method: In some experiments the influence of the known preparation fluorofur on the antitumoral activity of giniquine was studied. […] The tests were made on Ehrlich ascitic tumor. The preparations were injected 1,2,3,4 and 7 days after the implantation of tumor. Giniquine was injected intraperitoneally and fluorafur-subcutaneously.
giniquine was injected intraperitoneally, and fluorafursubcutaneously.

[5] = LD50, intact mice; settings: mouse, in vivo, ip, intraperitoneal
[6] = test system: La hemocytoblastosis; test: Antitumor activity, La hemocytoblastosis; format: in vivo, mice
Method: as §7

[7] = test system: Lungs; test: In vivo biosynthesis of DNA, RNA and protein in lungs; design: species or system mice; settings: 24 hours, intraperitoneal 28 mg/kg
Method: as §8, §9, §10, §11, §12

[8] = Biological availability, blood and liver of rats; format: in vivo; settings: intraperitoneal 100 mg/kg
Method: as §1, §2, §3, §4, §5, §6

[9] = test system: lymphatic leukemia P-388; test: Antitumor activity, lymphatic leukemia P-388; format: in vivo, mice
Method: as §7

## CCN(CC)CCCC(C)NC(=O)c1cc(C=Cc2ccc([N+](=O)[O-])o2)nc2ccccc12 (stereo not drawn) [giniquine, 2-[2'-(5"-nitrofuryl-2")vinyl]quinoline-4-carboxylic acid (α-methyl-δ-diethylaminobutyl)amide triphosphate]
[1]; 60 minutes
  concentration in tumoral cells versus ascitic fluid (in words): also greater than that in ascitic fluid
[1]; intraperitoneal 100 mg/kg
  time of maximum concentration in ascitic cells: five minutes
[1]; intraperitoneal 100 mg/kg, five minutes
  concentration in ascitic cells versus ascitic fluid: four times greater
[1]; intraperitoneal injection
  accumulation (in words): mainly accumulates in ascitic cells
[1]; mouse, ascitic cells, ip, intraperitoneal 100 mg/kg, five minutes, read-out: maximum concentration in ascitic cells
  Cmax at 5 min: 40000 ng/mL
[1]; mouse, ascitic fluid, ip, intraperitoneal 100 mg/kg, five minutes
  concentration at 5 min: 10000 ng/mL
[2]; common female mice, intraperitoneal, days 1,2,3,4,7, daily doses 6.0-28.0 mg/kg, optimum daily dose 0
  Max. life prolong.: 0%
[2]; sarcoma 37
  antiblastic activity / sensitivity (in words): practically insensitive
[3]
  Incorporation of specific precursors, DNA: 178.0 % of control
  Incorporation of specific precursors, Protein: 105.0 % of control
  Incorporation of specific precursors, RNA: 148.0 % of control
[4]; Test No. 1, giniquine 3.6 mg/kg daily
  Life prolongation: 55%
[4]; Test No. 1, giniquine 6.0 mg/kg daily
  Life prolongation: 67%
[4]; Test No. 1, giniquine 10.0 mg/kg daily
  Life prolongation: 38%
[4]; Test No. 1, giniquine 17.0 mg/kg daily
  Life prolongation: -5%
[4]; Test No. 2, giniquine 3.6 mg/kg daily
  Life prolongation: 45%
[4]; Test No. 2, giniquine 6.0 mg/kg daily
  Life prolongation: 98%
[4]; Test No. 2, giniquine 10.0 mg/kg daily
  Life prolongation: 5%
[4]; Test No. 2, giniquine 17.0 mg/kg daily
  Life prolongation: -48%
[5]; single injection, female
  LD50: 33 mg/kg
[5]; single injection, male
  LD50: 30 mg/kg
[5]; ten injections, female
  LD50: 8 mg/kg
[5]; ten injections, male
  LD50: 7.3 mg/kg
[6]; C57 BL/6Y female mice, intraperitoneal, days 1,2,3,4,7, optimum daily dose 10.0 mg/kg
  Max. life prolong.: 5%
[6]; La hemocytoblastosis
  antitumor effect / sensitivity (in words): practically insensitive
[7]
  Incorporation of specific precursors, DNA: 255.0 % of control
  Incorporation of specific precursors, Protein: 102.0 % of control
  Incorporation of specific precursors, RNA: 124.0 % of control
[8]; blood
  time of detection in blood: as early as in five minutes
[8]; rat, blood, ip, 30 minutes, read-out: maximum level in blood
  Cmax at 0.5 h: 23000 ng/mL
[8]; rat, ip, blood, read-out: time of maximum level in blood (converted)
  Tmax: 30 min
[8]; rat, ip, liver, read-out: maximum concentration in liver
  Cmax: 28000 ng/mL
[8]; rat, ip, liver, read-out: time of maximum concentration in liver (converted)
  Tmax: 20 min
[8]; rat, serum, ip, 60 minutes, read-out: content in blood serum
  concentration at 1 h: 3000 ng/mL
[9]; P-388
  sensitivity (in words): practically insensitive
[9]; printed B-388, BDF1 female mice, intraperitoneal, days 1,2,3,4,7, optimum daily dose 10.0 mg/kg
  Max. life prolong.: 12%
